Biological target: T1, EGFR (Homo sapiens, UniProt P00533)
T1 construct: started at nucleotide 2189 (corresponding to amino acid 667) and ended at the termination codon; made in house; host or cells: Sf9 insect cells (baculovirus)
Assay: EGFR Kinase Assay
Assay type: biochemical
Conditions: GST-EGFR, 5 μM ATP
Text: The portion was PCR amplified with primers that added the lambda attB sequences to each end, recombined into an entry vector, then into a, GST destination vector (as described in Gateway Technologies Manual by Invitrogen Corporation, Carlsbad, Calif.).
The destination vector was recombined in the DH10BAC strain of bacteria to produce a bacmid. The bacmid was transfected into Sf 9 cells and the supernatant containing the baculovirus was collected. The GSTEGFR protein was purified using large cultures of Sf 9 cells infected with stock virus. After an appropriate period of time, the cells were collected and lysed. The GSTEGFR was then purified from the lysate on Glutathione-Sepharose columns (as described by Amersham Biosciences, Buckinghamshire, United Kingdom).
The free biotin was separated from the biotinylated polyGluTyr on a gel filtration column.
A mixture of a 10× kinase buffer (500 mM Tris at pH 8.0, 100 mM Magnesium Chloride and 1 mM Sodium Vanadate), DTT (1 mM final from 500 mM stock), ATP (5 μM final from 10 mM stock), biotinylated polyGluTyr (10 μg/μL stock), γ-^33P ATP (10 μCi/μL stock) and water was added to each well (90 μL/well) of a Streptavidin Flashplate (Perkin Elmer, Wellesley, Mass.).
Test compound in 100% DMSO (2 μL) was added to the appropriate wells. Diluted GSTEGFR (1:300 dilution in 50 mM Tris at pH 8.0 and 0.1% bovine serum albumin) (10 μL) was added to the wells to initiate the reactions.
The plates were incubated at 30° C. for 1 hr with shaking. The reacted contents were removed and the plates were sequentially washed three times with a 1×PBS stop buffer (300 μL without Magnesium and Calcium) and 100 mM EDTA. After the final wash, the same stop buffer (200 μL) was added to the wells. The plates were then sealed and read on the TopCount scintillation counter.
Test compounds were assayed in triplicate at 16 concentrations at half-log dilutions starting at 200 uM. A maximum and minimum signal for the assay was determined on each plate. The percent inhibition of a test compound was calculated according to the formula
For a series of test concentrations, the IC50 was derived by graphing percent inhibition against the log of the concentrations tested for a given compound.

T1 sequence (P00533 667-1210 limits assumed): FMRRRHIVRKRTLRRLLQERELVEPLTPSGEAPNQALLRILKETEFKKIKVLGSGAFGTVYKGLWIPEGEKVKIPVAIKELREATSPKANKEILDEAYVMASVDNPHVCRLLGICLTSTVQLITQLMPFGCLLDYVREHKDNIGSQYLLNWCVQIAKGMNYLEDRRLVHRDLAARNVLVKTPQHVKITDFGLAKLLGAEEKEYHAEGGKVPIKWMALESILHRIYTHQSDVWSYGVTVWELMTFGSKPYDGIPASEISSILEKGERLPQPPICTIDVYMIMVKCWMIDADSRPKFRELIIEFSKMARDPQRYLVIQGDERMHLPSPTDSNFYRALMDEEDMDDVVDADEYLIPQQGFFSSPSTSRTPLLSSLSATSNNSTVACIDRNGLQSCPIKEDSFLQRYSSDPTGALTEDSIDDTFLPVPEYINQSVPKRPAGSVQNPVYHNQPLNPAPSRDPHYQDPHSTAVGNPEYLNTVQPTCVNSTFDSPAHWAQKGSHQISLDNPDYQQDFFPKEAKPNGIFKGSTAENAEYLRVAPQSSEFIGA

| IC50 [µM] | Structure (SMILES) |
| --- | --- |
| 0.00542 | C#Cc1cccc(Nc2ncnc3nc(Nc4ccc(CN5CCCC5)cc4)sc23)c1 [Cpd 42, N^7-(3-ethynyl-phenyl)-N^2-(4-pyrrolidin-1-ylmethyl-phenyl)-thiazolo[4,5-d]pyrimidine-2,7-diamine] |
| 0.0078 | C#Cc1cccc(Nc2ncnc3nc(Nc4ccc(CN5CCCCC5)cc4)sc23)c1 [Cpd 43, N^7-(3-ethynyl-phenyl)-N^2-(4-piperidin-1-ylmethyl-phenyl)-thiazolo[4,5-d]pyrimidine-2,7-diamine] |
| 0.01 | C#Cc1cccc(Nc2ncnc3nc(Nc4ccc(CN5CCC[C@H]5CO)cc4)sc23)c1 [Cpd 44, (2S)-(1-{4-[7-(3-ethynyl-phenylamino)-thiazolo[4,5-d]pyrimidin-2-ylamino]-benzyl}-pyrrolidin-2-yl)-methanol] |
| 0.0225 | C#Cc1cccc(Nc2ncnc3nc(Nc4ccc(S(=O)(=O)N5CCOCC5)cc4)sc23)c1 [Cpd 45, N^7-(3-ethynyl-phenyl)-N^2-[4-(morpholine-4-sulfonyl)-phenyl]-thiazolo[4,5-d]pyrimidine-2,7-diamine] |
| 0.0155 | O=S(=O)(c1ccc(Nc2nc3ncnc(Nc4ccc(F)c(Cl)c4)c3s2)cc1)N1CCOCC1 [Cpd 46, N^7-(3-chloro-4-fluoro-phenyl)-N^2-[4-(morpholine-4-sulfonyl)-phenyl]-thiazolo[4,5-d]pyrimidine-2,7-diamine] |
| 0.0182 | C#Cc1cccc(Nc2ncnc3nc(Nc4ccc(CN5CCN(C)CC5)cc4)sc23)c1 [Cpd 47, N^7-(3-ethynyl-phenyl)-N^2-[4-(4-methyl-piperazin-1-ylmethyl)-phenyl]-thiazolo[4,5-d]pyrimidine-2,7-diamine] |
| 0.009 | C#Cc1cccc(Nc2ncnc3nc(Nc4ccc(Cn5ccnc5CC)cc4)sc23)c1 [Cpd 48, N^2-[4-(2-ethyl-imidazol-1-ylmethyl)-phenyl]-N^7-(3-ethynyl-phenyl)-thiazolo[4,5-d]pyrimidine-2,7-diamine] |
| 0.0118 | C#Cc1cccc(Nc2ncnc3nc(Nc4ccc(CN(C)C)cc4)sc23)c1 [Cpd 49, N^2-(4-dimethylaminomethyl-phenyl)-N^7-(3-ethynyl-phenyl)-thiazolo[4,5-d]pyriridine-2,7-diamine] |
| 0.013 | C#Cc1cccc(Nc2ncnc3nc(Nc4ccc(CCN5CCOCC5)cc4)sc23)c1 [Cpd 50, N^7-(3-ethynyl-phenyl)-N^2-[4-(2-morpholin-4-yl-ethyl)-phenyl]-thiazolo[4,5-d]pyrimidine-2,7-diamine] |
| 0.918 | Fc1ccc(Nc2ncnc3nc(NCCN4CCOCC4)sc23)cc1Cl [Cpd 51, N^7-(3-chloro-4-fluoro-phenyl)-N^2-(2-morpholin-4-yl-ethyl)-thiazolo[4,5-d]pyrimidine-2,7-diamine] |
| 0.698 | Fc1ccc(Nc2ncnc3nc(NCCCN4CCOCC4)sc23)cc1Cl [Cpd 52, N^7-(3-chloro-4-fluoro-phenyl)-N^2-(3-morpholin-4-yl-propyl)-thiazolo[4,5-d]pyrimidine-2,7-diamine] |
| 0.00773 | CC(C)OCCNCc1ccc(Nc2nc3ncnc(Nc4ccc(F)c(Cl)c4)c3s2)cc1 [Cpd 53, N^7-(3-chloro-4-fluoro-phenyl)-N^2-{-4-[(2-isopropoxy-ethylamino)-methyl]-phenyl}-thiazolo[4,5-d]pyrimidine-2,7-diamine] |
| 0.01 | C#Cc1cccc(Nc2ncnc3nc(Nc4ccc(CN5CCC[C@@H]5CO)cc4)sc23)c1 [Cpd 54, (2R)-(1-{4-[7-(3-ethynyl-phenylamino)-thiazolo[4,5-d]pyrimidin-2-ylamino]-benzyl}-pyrrolidin-2-yl)-methanol] |
| 0.00825 | C#Cc1cccc(Nc2ncnc3nc(Nc4ccc(CNCCOC(C)C)cc4)sc23)c1 [Cpd 55, N^7-(3-ethynyl-phenyl)-N^2-{4-[(2-isopropoxy-ethylamino)-methyl]-phenyl}-thiazolo[4,5-d]pyrimidine-2,7-diamine] |
| 0.036 | COc1ccc(Cl)cc1Nc1ncnc2nc(Nc3ccc(CN4CCOCC4)cc3)sc12 [Cpd 56, N^7-(5-chloro-2-methoxy-phenyl)-N^2-(4-morpholin-4-ylmethyl-phenyl)-thiazolo[4,5-d]pyrimidine-2,7-diamine] |

From patent US7605154B2, “Substituted Thiazolo [4,5-d]pyrimidines as protein kinase inhibitors” (Janssen Pharmaceutica N.V., priority 2005, dated 2009)
